According to patent US6719976B1, “Peptide-based immunotherapeutic agent for treating allergic diseases” (Meiji Milk Products Co., Ltd., priority 1996, dated 2004):

How the values were obtained:
[1] = system: T cell clone PJ7-9; experiment: Proliferation response and cytokine production of T cell clone PJ7-9 to analog peptides; format: cell-based, human; details: unsubstituted 13-residue peptide regarded as 100%
Description: Two clones, PJ7-9 and PB10-18, were employed to see if the activity of T cells can be altered by substituting the amino acids of T cell epitope peptide of the Cry j 1 #22 core. T cell clones PJ 7-9 and PB10-12 which react with Cry j 1 Peptide No. 22 p106-120 are restricted by DRB5*0101 and recognize the nine residues of the Cry j 1 #22 core. Each of the nine amino acids residues in the peptides p108-120 (VFIKRVSNVIIHG SEQ ID NO. 13) of 13 residues including the nine residues were substituted with an homologous amino acid and a non-homologous amino acid to produce analog peptides (FIGS. 17 and 18). The reactivity of T cell clones PJ 7-9 and PB 10-18 with these analog peptides was examined in terms of the uptake of [^3H] thymidine. The concentration of cytokine in the reaction solution was measured using a cytokine assay kit manufactured by R & D Systems. The production of IFN-γ, IL-4, IL-2, and IL-5 in the supernatant and the uptake of [^3H] thymidine obtained by reacting the peptide of 13 residues with no amino acid substitution were regarded as 100%. […] Accordingly, the amino acids located in these positions are considered to be important for forming the complex of HLA and T cell receptor molecules via the peptide. […] For the PB 10-18 clone, the uptake of [3H] thymidine is suppressed by substitution of amino acid No. 1, 2, 3, 4, 6, 7, or 8 of Cry j 1 #22 core. The amino acids located in these positions are considered to be important for forming the complex of HLA and T cell receptor molecules via the peptide. It is further observed that the IL-2 production is suppressed by substitution of amino acid No. 6, 7, or 8, as compared to IL-5 production (FIG. 18).

[2] = system: Cry j 1-specific T cell line; experiment: Reactivity of Cry j 1-specific T cell line; format: cell-based, human; details: from patients with cedar pollinosis
Description: (§1) Two peptides (Cha o 1 #8-Cry j 1 #22 core, Cha o 1 #32-Cry j 1 #22 core) were synthesized by joining Peptide No. 8 (p71-90: […] SEQ ID NO. 11) which is a T cell epitope of hinoki pollen allergen Cha o 1 (Japanese Patent Application N. Hei. 8-15327), or Peptide No. 32 ([…]: […] SEQ ID NO. 12) to Cry j 1 #22 core sequence “FIKRVSNVI”(SEQ ID NO. 7) obtained in Example 14 using a peptide synthesizer (PSSM-8, Shimadzu Seisakusho Ltd.). An RR sequence was inserted between Cha o 1 #8 and Cry j 1 #22 core and between Cha o 1 #32 and Cry j 1 #22 core, that is, Cha o 1 #8-Cry j 1 #22 core (SEQ NO: 4) and Cha o 1 #32-Cry j 1 #22 core (SEQ NO: 5).
(§2) A Cry j 1-specific T cell line and a Cha o 1-specific T cell line were prepared from the patients with cedar pollinosis and hinoki pollinosis, respectively. […] However, these T cell lines all react with the multi-epitope peptide of SEQ NO: 4 and with the multi-epitope peptide of SEQ NO: 5.

[3] = system: Cha o 1-specific T cell line; experiment: Reactivity of Cha o 1-specific T cell line; format: cell-based, human; details: from patients with hinoki pollinosis
Description: as §1, §2

[4] = system: peripheral lymphocytes; experiment: Proliferation response of peripheral lymphocytes induced by multi-epitope peptide; format: cell-based, human
Description: Peripheral lymphocytes derived from the patients with cedar pollinosis or from healthy subjects were suspended in RPMI-1640 culture medium supplemented with 10% human sera. The suspension was distributed in each well of a 96-well culture plate with a round bottom in a concentration of 2.5×10^5 cells/200 μl. The multi-epitope peptide represented by SEQ NO: 1, either Cry j 1 or Cry j 2, was added to each well to a final concentration of 0.001 to 20 μg/ml of the multi-epitope peptide, 50 μg/ml of Cry j 1 or 2 μg/ml of Cry j 2. The plate was incubated for 6 days. After 0.5 μCi [^3H] thymidine was added to the medium, incubation was continued for a further 16 hours. After the cells were harvested on a glass filter using a cell harvester, the level of [^3H] thymidine taken up into the cells was determined using a liquid scintillation counter.
Peripheral lymphocytes from 17 patients with cedar pollinosis and two healthy subjects were stimulated by 10 μg/ml of the multi-epitope peptide to evaluate T cell response. […] In the 17 patients, a maximum [^3H] thymidine uptake of 9,652 cpm was observed. When [^3H] thymidine uptake of peripheral lymphocytes without antigen stimulation is regarded as 1, the uptake of [^3H] thymidine by peripheral lymphocytes in the presence of an antigen is expressed by a stimulation index (SI). Upon identification of T cell epitopes, SI>2 is regarded to be positive. Similarly, SI>2 is judged to be proliferation responsive to the peptide. […] From the results, the peptide-based immunotherapy is effective when administered to 76.5% of the cedar pollinosis patients.

[5] = system: human IgE antibody; experiment: Reactivity of the multi-epitope peptides with human IgE antibody (fluorescence plate assay); format: binding; details: 21 tested patients with cedar pollinosis
Description: The six multi-epitope peptides (C.A.#1 through C.A.#6) obtained in Example 6 were dissolved in 0.2 M acetate buffer solution (pH 4.5). The solution was dispensed in quantities of 0.1 ml/well in a black plate (manufactured by Dainihon Pharmaceutical Co., Ltd.) then allowed to stand at 4° C. overnight. After the antigen solution was removed, the wells were washed three times with a washing solution and the serum (4-fold dilution) from 29 patients with cedar pollinosis and healthy subjects were each added to separate wells. The system was then reacted at 37° C. for 4 hours. After the sera were removed, the wells were washed three times with a washing solution then reacted with anti-human IgE antibody (made by Pharmacia Inc.) at room temperature overnight. After washing three times with a washing solution, a substrate solution containing 0.1 mM 4-methylumbelliferyl-, β-D-galacto-pyranoside/0.01 M phosphate buffer (pH 7.0), 0.1 M NaCl, 1 mM MgCl2, 0.1% NaN, and 0.1% BSA was added, and the solution was incubated at 37° C. for 2 hours. A solution of 0.1 M glycine/NaOH (pH 10.3) was added to the wells to terminate the reaction. Fluorescent intensity was measured using a fluorophotometer (Labsystems). For positive control to each multi-epitope peptide, biotin-labeled rabbit anti-d epitope IgG and peroxidase-labeled streptoavidin (made by Pierce Inc.) were reacted.

[6] = system: T cell clones; experiment: Recognizing the T cell epitopes in the multi-epitope peptide C.A.#4 by T cell clones; format: cell-based, human; details: C.A.#4 10 μg/ml
Description: The antigenic peptide constituting the multi-epitope peptide C.A.#4 obtained in Example 6 was examined to determine if the antigenic peptide actually functions as a T cell epitope.
On a 96-well micro culture plate, a mixture of 5×10^4 cells of the autologous B cell line previously treated with mitomycin C and 2×10^4 cells of the T cell clone was incubated for 2 days in 0.2 ml 15% serum-supplemented RPMI-1640 medium, together with, as an antigen, either 50 μg/ml of Cry j 1 and 2 μg/ml of Cry j 2, each antigenic peptide constituting the multi-epitope peptide C.A.#4 or 10 μg/ml C.A.#4 multi-epitope peptide produced by gene expression. After 0.5 μCi [^3H] thymidine was added to the medium, incubation was continued for a further 16 hours. After the cells were harvested on a glass filter using a cell harvester, the level of [^3H] thymidine taken up into the cells was determined using a liquid scintillation counter.

## SIKRVSNVI (listed as Cryptomeria japonica) [Cry j 1 #22 core with the first amino acid F substituted with S]
[1]
  IFN-γ production: marked increase
  IL-2 production: marked increase
  uptake of [3H] thymidine: no change

## FIKRVSNVI [Cry j 1 #22 core]
[2]
  reactivity of Cry j 1-specific T cell line: reacts with
[3]
  reactivity of Cha o 1-specific T cell line: does not react with

## IFSKNLNIKLNMPLYIAGNK [Cha o 1 #8]
[2]
  reactivity of Cry j 1-specific T cell line: does not react with
[3]
  reactivity of Cha o 1-specific T cell line: reacts with

## SEQ NO: 4: Cha o 1 #8 joined to Cry j 1 #22 core with an RR sequence inserted (IFSKNLNIKLNMPLYIAGNKRRFIKRVSNVI; listed as Cryptomeria japonica)
[2]
  reactivity of Cry j 1-specific T cell line: react with
[3]
  reactivity of Cha o 1-specific T cell line: react with

## SSGKNEGTNIYNNNEAFKVE [Cha o 1 #32]
[2]
  reactivity of Cry j 1-specific T cell line: does not react with
[3]
  reactivity of Cha o 1-specific T cell line: reacts with

## SEQ NO: 5: Cha o 1 #32 joined to Cry j 1 #22 core with an RR sequence inserted (SSGKNEGTNIYNNNEAFKVERRFIKRVSNVI; listed as Cryptomeria japonica)
[2]
  reactivity of Cry j 1-specific T cell line: react with
[3]
  reactivity of Cha o 1-specific T cell line: react with

B1: SEQ NO: 2: joining p213-225 and p108-120 of Cry j 1, p182-200 and p79-98 of Cry j 2, p80-95 of Cry j 1, p66-80 of Cry j 1 (peptide, listed as Cryptomeria japonica)
chain: MKVTVAFNQFGPNRRVFIKRVSNVIIHGRRIDIFASKNFHLQKNTIGTGRRWKNNRIWLQFAKLTGFTLMGRRLKMPMYIAGYKTFDGRRVDGIIAAYQNPASWK
[4]; 21 tested patients with cedar pollinosis
  stimulation of peripheral lymphocyte samples: stimulated all the peripheral lymphocyte samples
[5]
  reaction with the IgE antibody of the patients: did not react

B2: a-Arg-Arg-b-Arg-Arg-d-Arg-Arg-e-Arg-Arg-c (peptide)
peptide: KSMKVTVAFNQFGPNRRPCVFIKRVSNVIIHGRRAPRDSPNTDGIDIFASKNFHRRKDIKLSDISLKLTSGKIASCRRPCQPHFTFKVDGIIA
notes: produced by gene expression
[6]
  proliferation response of T cell clone PB14-19 (recognizes Cry j2 p341-355): somewhat weak
[6]; clones PB8-3, PB8-34, PB4-22, PB14-5, PB14-3
  proliferation response of the T cell clones recognizing the respective epitope: comparable to that of each of the peptides

B3: SEQ NO: 1: multi-epitope peptide containing selected T cell epitopes of Cry j 1 and Cry j 2 joined via Arg-Arg (peptide, listed as Cryptomeria japonica)
chain: MKVTVAFNQFGPNRRVFIKRVSNVIIHGRRIDIFASKNFHLQKNTIGTGRRISLKLTSGKIASRRVDGIIAAYQNPASWK
[4]; 13 out of the 17 patients, 10 μg/ml
  patients with proliferation response (SI>2): 76.5%
[4]; 17 patients, 10 μg/ml
  maximum [3H] thymidine uptake: 9,652 cpm
[4]; one patient and two healthy subjects, 0.001 to 20 μg/ml
  proliferation response of peripheral lymphocytes: no proliferation response
[4]; six patients with cedar pollinosis, 0.001 to 20 μg/ml
  patients whose peripheral lymphocytes showed proliferation response: five out of six
[4]; two healthy subjects, 10 μg/ml
  T cell proliferation response of peripheral lymphocytes from healthy subjects: No response to T cell proliferation was observed
